In PMC10192568, “Comparison of pharmacokinetic profiles of seven major bioactive components in normal and non-alcoholic fatty liver disease (NAFLD) rats after oral administration of Ling-Gui-Zhu-Gan decoction by UPLC-MS/MS” (Frontiers in Pharmacology, 2023):
Read-outs that look alike come from different tables or passages of the source.

Columns and labels:
[1] = Pharmacokinetic study of LGZGD components in plasma of normal and NAFLD rats after oral administration (UPLC-MS/MS); format: in vivo, Male Sprague–Dawley rats; conditions: for AUC0-∞ value decreased / C max value decreased: NAFLD rats compared with normal rats; for AUC0-∞ value decreased / C max value decreased / MRT decreased / MRT0-t prolonged: oral LGZGD; for MRT decreased / MRT0-t prolonged: NAFLD rats compared with the normal group; for AUC(0-inf) / AUC(0-t) / Cmax / Tmax / half-life / MRT last: Sprague-Dawley, rat; for MRT last: read-out: MRT0-t
Procedure: Male Sprague–Dawley rats, weighing 200–220 g, SPF grade, were purchased from Shanghai Sippr-BK laboratory animal Co. Ltd. (Shanghai, China) and raised in the Laboratory Animal Center of Shanghai University of Traditional Chinese Medicine. The rats were kept in an environmentally controlled condition: on a 12:12 h light–dark cycle (lights on at 7:00 a.m.) with regulated temperature and humidity, at a temperature of 22°C–24°C and a relative humidity of 60–65%. In the experiment, the rats in the normal group were fed a certified standard rat diet and tap water, while those in the model group were fed a high-fat diet for 8 weeks to construct the NAFLD model (high-fat diet: 2% cholesterol, 10% lard, 0.1% sodium cholate, 10% yolk powder, and 77.9% normal diet). The animal experiment program was approved by the Animal Committee of Shanghai University of Traditional Chinese Medicine (License No.: PZSHUTCM201016001).
An Agilent 1290 UPLC system was combined with an Agilent 6460 series MS/MS system (Agilent Technologies, Santa Clara, CA, United States) to quantify the analytes in the ESI-positive ionization mode. The mass spectrum conditions were as follows: a capillary voltage of 4,000 V; a gas flow rate of 10 L/min; a nebulizer of 30 psi; a gas temperature of 350°C; and a Delta EMV(+) of 200 V. Five microliters of the samples was injected into an Agilent SB-C18 column (2.1 mm × 50 mm, 1.8 μm particles). The analytes were separated using the gradient elution method, and the mobile phase was composed of water (0.05% V/V formic acid) (A) and acetonitrile (B) at a flow rate of 0.4 mL/min (0–1 min, 10–10% B; 1–5 min, 10–90% B; 5–7 min, 90–90% B; and 7–7.1 min, B 90–10%; rebalance for 2 min).
A plasma sample of 50 µL was placed in a 1.5 mL centrifuge tube with 10 µL of schisandrin (IS) solution (50 ng/mL) and mixed for 5 min. The samples were successively extracted with 500 µL of ethyl acetate and treated with 250 µL of methanol, which were then mixed for 5 min and centrifuged at 4°C for 10 min (at 18,000 rpm). All the supernatant was absorbed into another 1.5 mL centrifuge tube, dried under a gentle stream of nitrogen at 37°C, and then added with 50 µL of 50% methanol for reconstruction. After being centrifuged at 4°C for 10 min (at 18,000 rpm), 5 µL of the supernatant was extracted and injected into a chromatographic column for analysis, and the chromatograms were recorded.
The rats were randomly divided into the normal group and the model group. According to the preliminary experiment, the dose was adjusted to about eight times the normal dose ([Gu, 2020]; [Li et al., 2023]). […] The animal research program was approved by the Animal Committee of Shanghai University of Traditional Chinese Medicine. At 0, 0.083, 0.25, 0.5, 0.75, 1, 2, 4, 6, 8, 10, 12, 24, and 48 h after dosing, 150 µL blood samples were collected from the rats' orbital venous plexus into centrifuge tubes containing 10 IU of sodium heparin. After being centrifuged at 5,000 rpm (4°C) for 10 min, the plasma was transferred to 1.5 mL polypropylene tubes and stored at −80°C until the plasma samples were analyzed.
Important pharmacokinetic parameters, which included the maximum plasma concentration (C max), time to maximum concentration (T max), half-life (t 1/2), area under the curve (AUC0-t), and total area under the curve (AUC0-∞), were hereby calculated using the DAS 3.2.8 software. Meanwhile, the pharmacokinetic data of the normal and model rats were compared using the SPSS software (version 21.0). Besides, Spearman rank bivariate correlation coefficient was used to determine the correlation between AUC values and UGT1A1 and nine other transporters. All the calculated data were expressed as mean ± SD. When p < 0.05, the difference was considered significant and statistically significant; and when p < 0.01 or <0.001, the difference was considered very significant.

[2] = Stability of the seven components in rat plasma QC samples; format: physicochemical; conditions: n = 6; for Stability during 24 h at 4°C, RE: auto sampler
Procedure: Stability refers to the ability of the components to retain their chemical properties in the matrix. To analyze the stability of all components in the plasma, six replicates of QC samples at three concentrations were hereby prepared under each condition. The stability of the QC samples at three concentrations was analyzed under different storage conditions: −80°C for 30 days, after three freeze–thaw cycles, and 24 h in an auto sampler at 4°C.

[3] = male, plasma, po, 23 g/kg, Model (NAFLD) group, male SD rats, oral LGZGD extract 23 g/kg, plasma, mean ± SD, n = 6
[4] = male, plasma, po, 23 g/kg, Normal group, male SD rats, oral LGZGD extract 23 g/kg, plasma, mean ± SD, n = 6
[5] = Normal group, male SD rats, oral LGZGD extract 23 g/kg, plasma, mean ± SD, n = 6

Row | SMILES | AUC0-∞ value decreased [1] [%] | C max value decreased [1] [%] | AUC(0-inf) [1, 3] [ng·h/mL] | AUC(0-t) [1, 3] [ng·h/mL] | Cmax [1, 3] [ng/mL] | half-life [1, 3] [h] | MRT last [1, 3] [h] | AUC(0-inf) [1, 4] [ng·h/mL] | AUC(0-t) [1, 4] [ng·h/mL] | Cmax [1, 4] [ng/mL] | MRT last [1, 4] [h] | Stability during 24 h at 4°C, RE ([2]; high QC level) [%] | Stability during 24 h at 4°C, RE ([2]; low QC level) [%] | Stability during 24 h at 4°C, RE ([2]; medium QC level) [%] | Three freeze–thaw cycles, RE ([2]; high QC level) [%] | −80°C for 30 days, RE ([2]; high QC level) [%] | Three freeze–thaw cycles, RE ([2]; low QC level) [%] | −80°C for 30 days, RE ([2]; low QC level) [%] | Three freeze–thaw cycles, RE ([2]; medium QC level) [%] | −80°C for 30 days, RE ([2]; medium QC level) [%] | other results
1 | C=C(CC[C@@H](C(=O)O)[C@H]1[C@H](O)C[C@@]2(C)C3=CC[C@H]4C(C)(C)[C@@H](O)CC[C@]4(C)C3=CC[C@]12C)C(C)C [Dehydrotumulosic acid, dehydrotumulosic acid] | 75.1 | 62.4 | 43.5 ± 12 | 43.4 ± 12 | 3.8 ± 0.6 | 5 ± 1.8 | 10.4 ± 2.2 | 175 ± 37.2 | 142 ± 15.8 | 10.1 ± 3 | 14.4 ± 2.7 | −2.3 | 3.8 | 1.6 | 5.5 | 3.0 | −12.8 | 3.2 | −4.3 | 10.2 | MRT decreased [1]: 27.8%; Tmax [1, 3]: 1.8 ± 1.6 h; Tmax [1, 4]: 4 ± 1.8 h; half-life [1, 4]: 19 ± 12.2 h
2 | O=C(/C=C/c1ccc(O[C@@H]2O[C@H](CO)[C@@H](O)[C@H](O)[C@H]2O)cc1)c1ccc(O)cc1O [Isoliquiritin, isoliquiritin] | 65.8 | 31.1 | 56.9 ± 10.8 | 51.9 ± 7.8 | 4.2 ± 0.8 | 13.1 ± 7.5 | 15.5 ± 1.8 | 166 ± 10.5 | 108 ± 21.2 | 6.1 ± 1.8 | 19.8 ± 1.7 | −12.7 | 1.3 | 11.0 | 3.9 | 4.0 | −6.8 | −1.1 | −3.0 | −2.1 | MRT decreased [1]: 21.7%; Tmax [1, 5]: 0.6 ± 0.1 h; half-life [1, 4]: 9.2 ± 4.4 h
3 | C=C1CCC[C@]2(C)C[C@]3(O)OC(=O)C(C)=C3C[C@@H]12 [Atractylenolide III, atractylenolide III] | 70.8 | 35.2 | 166 ± 45.1 | 117 ± 16.1 | 7.9 ± 1.3 | 18.3 ± 1.3 | 19.3 ± 2.9 | 568 ± 235 | 352 ± 21.5 | 12.2 ± 3.4 | 14.7 ± 1.5 | −4.0 | 6.4 | 5.2 | −3.8 | 14.1 | 13.3 | −4.4 | −9.5 | −3.5 | MRT0-t prolonged [1]: 31.3%; Tmax [1, 3]: 0.6 ± 0.1 h; Tmax [1, 4]: 0.7 ± 0.1 h; half-life [1, 4]: 10.2 ± 4.4 h
4 | CC1(C)[C@@H](O)CC[C@]2(C)[C@H]3C(=O)C=C4[C@@H]5C[C@@](C)(C(=O)O)CC[C@]5(C)CC[C@@]4(C)[C@]3(C)CC[C@@H]12 [Glycyrrhetinic acid, glycyrrhetinic acid] | 50.6 | 65.0 | 26200 ± 14400 | 25600 ± 14800 | 1650 ± 1170 | 8.9 ± 4.5 | 15.6 ± 2.3 | 89600 ± 28600 | 88200 ± 27200 | 7280 ± 2080 | 10.8 ± 1.1 | −8.9 | 5.2 | 6.7 | 2.2 | 2.6 | −0.4 | −5.2 | −7.7 | −4.9 | MRT0-t prolonged [1]: 44.4%; Tmax [1, 3]: 13.2 ± 6.3 h; Tmax [1, 4]: 9.3 ± 1.6 h; half-life [1, 4]: 6 ± 2.1 h
5 | O=C(O)/C=C/c1ccccc1 [Cinnamic acid, cinnamic acid] | 58.1 | 38.3 | 4410 ± 1420 | 4330 ± 1330 | 1190 ± 352 | 6.6 ± 3.5 | 6.2 ± 1.8 | 10500 ± 1900 | 10100 ± 1770 | 1930 ± 484 | 8.2 ± 1.3 | −3.7 | 8.4 | 13.9 | −11.1 | −2.6 | −0.4 | −8.0 | 0.7 | 3.6 | Tmax [1, 3]: 0.6 ± 0.1 h; Tmax [1, 4]: 0.6 ± 0.1 h; half-life [1, 4]: 12.8 ± 3.6 h
6 | O=C1C[C@@H](c2ccc(O[C@@H]3O[C@H](CO)[C@@H](O)[C@H](O)[C@H]3O)cc2)Oc2cc(O)ccc21 [Liquiritin, liquiritin] | 53.7 | 63.8 | 53400 ± 22100 | 52800 ± 22300 | 3740 ± 991 | 6 ± 3.4 | 10.1 ± 1.3 | 115000 ± 32900 | 115000 ± 32900 | 10300 ± 1850 | 7.7 ± 1.6 | −3.0 | 1.4 | 5.4 | 4.1 | −1.2 | 10.5 | −4.1 | −1.8 | 3.1 | MRT0-t prolonged [1]: 31.2%; t 1/2 [1, 5]: 5.2 ± 2.5 h; Tmax [1, 3]: 6.8 ± 4.1 h; Tmax [1, 4]: 4.8 ± 1.1 h
